Values of other authors, collected in patent US20190201327A1 (AMPERSAND BIOPHARMACEUTICALS, INC., priority 2017, published 2019).

System: neovascularization

SMILES: CC1=C(CO)C(=O)O[C@@H]([C@@H](C)[C@H]2CC[C@H]3[C@@H]4C[C@H]5O[C@]56[C@@H](O)C(N=[N+]=[N-])CC(=O)[C@]6(C)[C@H]4CC[C@]23C)C1 (stereo partly shown) [3-azido WFA, 3-azido Withaferin A]
- neovascularization in vivo: abrogated neovascularization in vivo in a dose dependent manner
